# From PubChem BioAssay (NCI)
#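 96-well plates; 48 h exposure; 5 concentrations. Endpoints by linear interpolation between flanking doses. Not reached: highest tested concentration assigned. At the GI50, growth is halved. TGI marks complete inhibition of growth.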
# Experiments:
# Assay in all cases: DTP human tumour cell line panel, 48 h
# [1] = system: A498 renal
# [2] = system: MDA-MB-435
# [3] = system: HS 578T breast
# [4] = system: UACC-62 melanoma
# [5] = system: SK-MEL-2 melanoma
# [6] = system: K-562 leukemia
# [7] = system: NCI-H522 lung
# [8] = system: 786-0 renal
# [9] = system: MOLT-4 leukemia
# [10] = system: RXF 393 renal
SMILES,TGI [1],TGI [2],TGI [3],TGI [4],TGI [5],TGI [6],TGI [7],TGI [8],TGI [9],TGI [10],GI50 [1],GI50 [2],GI50 [3],GI50 [4],GI50 [5],GI50 [6],GI50 [10],GI50 [8],GI50 [9]
O=C(O)Cn1ccc(=O)c2ccc([N+](=O)[O-])cc21,> 100 µM,> 100 µM,> 100 µM,> 100 µM,> 100 µM,> 100 µM,> 100 µM,> 100 µM,> 100 µM,,,,,,,,,,
CN(C(=O)C12C3C4C1C1C2C3C41C(=O)C(C)(C)C)C(C)(C)C (stereo not drawn),> 100 µM,,,> 100 µM,> 100 µM,> 100 µM,> 100 µM,> 100 µM,> 100 µM,,,,,,,,,,
N#CC(C(=N/O)/C(=N/O)C(C#N)c1ccc(Cl)cc1)c1ccc(Cl)cc1 (stereo not drawn),> 100 µM,,,> 100 µM,> 100 µM,,,> 100 µM,,98.7 µM,,,,,,,,,
CCCCNC1=C(C(=O)OCC)C(=O)CO1,,,,> 100 µM,> 100 µM,> 100 µM,> 100 µM,> 100 µM,> 100 µM,> 100 µM,,,,,,,,,
CC1(Cl)C(=O)NC(=O)N(C2CC(N=[N+]=[N-])C(CO)O2)C1N=[N+]=[N-] (stereo not drawn),> 100 µM,,,> 100 µM,> 100 µM,> 100 µM,> 100 µM,> 100 µM,> 100 µM,> 100 µM,,,,,,,,,
COC(=O)C1=C(C(=O)OC)C2C=CC1C1C(Cl)=C(Cl)C21 (stereo not drawn),,,,> 100 µM,> 100 µM,> 100 µM,> 100 µM,> 100 µM,> 100 µM,> 100 µM,,,,,,,,,
COc1ccc2[nH]c3c(C)c4c(c(C)c3c2c1)CN(C)CC4,32.2 µM,,,34.8 µM,31.5 µM,25.8 µM,33.4 µM,27.8 µM,74.1 µM,36.2 µM,,,,,,,,,
COC(=O)CC(=O)C[P+](c1ccccc1)(c1ccccc1)c1ccccc1,,,,> 218 µM,> 218 µM,> 218 µM,86.8 µM,> 218 µM,> 218 µM,> 218 µM,,,,,,,,,
CCCCCCCCCC[C@@H](O)[C@@H]1CC[C@H]([C@H]2CC[C@@H]([C@@H](O)CCCCCCCCCC[C@H]3CC(CC(C)=O)C(=O)O3)O2)O1 (stereo partly drawn),71.9 µM,,,32.2 µM,30.7 µM,33.4 µM,13.2 µM,28.5 µM,18.8 µM,,,,,,,,,,
CC12CC[C@@H](C(C)(C)O)C1[C@@H](O)CC1(C)C2CCC2[C@@]3(C)CC[C@H](O)C(C)(C)C3C(O)C[C@]21C (stereo partly drawn),32.3 µM,,,34.7 µM,36.8 µM,24.5 µM,,33.8 µM,,23.5 µM,,,,,,,,,
COc1cnc2cc(C(=O)O)c3c([N+](=O)[O-])cccc3c2c1,,> 100 µM,> 100 µM,> 100 µM,> 100 µM,> 100 µM,> 100 µM,> 100 µM,> 100 µM,> 100 µM,,,,,,,,,
O=[N+]([O-])/C=C\c1ccc(Cl)c(Cl)c1,3.81 µM,2.86 µM,7.6 µM,30.1 µM,7.61 µM,5.08 µM,,3.56 µM,6.9 µM,3.11 µM,0.667 µM,1.27 µM,2.42 µM,10.9 µM,2.56 µM,0.379 µM,1.68 µM,1.89 µM,1.55 µM
